Holding throughout (assay type): in vivo, human
Data set [1] in a line: Single dose ASA pharmacokinetics in healthy adults (serial blood samples). Here is the method:
(§1) Healthy adults were randomized to receive single doses of extended release ASA (“ER ASA”) at a dosage of 20 mg, 40 mg, 81 mg, 162.5 mg ER ASA (Durlaza®; New Haven Pharmaceuticals, Inc., North Haven, Conn.), or 325 mg, or immediate release ASA (“IR ASA”; aspirin powder USP; Letco Medical, Decatur, Ala.) at a dosage of 5 mg, 10 mg, 20 mg, 40 mg or 81 mg. […] For pharmacodynamic assessments, serum 11-dehydro-thromboxane (“TxB2”, a stable metabolite of thromboxane A2) levels were assessed using a validated enzyme immunoassay kit in serial blood samples collected 1 hour before dosing and at 0.5, 1, 2, 4, 8, 16, and 24 hours after drug administration.

A further data set concerns serum TxB2 production. Put plainly: Single dose inhibition of serum TxB2 production in healthy adults (enzyme immunoassay). Conditions: highest doses: ER ASA 81, 162.5, 325 mg; IR ASA 40, 81 mg. As to the method: as §1
The test system of another data set is platelet aggregation. Put plainly: Light transmittance aggregometry (LTA), AA-, collagen-, ADP-induced, in type II diabetes subjects with vascular disease or CVD risk factors. Conditions: trough. As to the method:
High platelet reactivity has previously been implicated in incomplete inhibition during therapy with immediate release low-dose aspirin in patients with type II diabetes. The main study consisted of a run-in phase where subjects were administered 81 mg, everyday (“QD”), of immediate release acetylsalicylic acid (“IR ASA”) for 7-28 days. […] For this study the trough level data are from the following timepoints: (1) for 81 mg—the data at Visit 2; […]

Another data set concerns endothelial function. Description: Reactive hyperemia index (ENDOPAT pulsatile arterial tonometry). As to the method: Endothelial function was assessed using the ENDOPAT system ([…] Medical, Israel), a pulsatile arterial tonometry-based diagnostic device, at Visit 2, Visit 3, Visit 5, and Visit 6 predose. The reactive hyperemia index (“RHI”), a measure of endothelial function, and the augmentation index (“AI”), a measure of arterial stiffness, were determined. Endothelial dysfunction is defined as RHI <1.67. Normal arterial stiffness is defined as an AI -30% to -10%, increased arterial stiffness as an AI >-10% to 10%, and abnormal arterial stiffness as an AI >10%. The RHI measures vessel pliability which is a surrogate for nitric oxide production. The production of nitric oxide inhibits platelet aggregation. Thus, determining nitric oxide production following Durlaza® dosing is important to understanding its affect on platelet inhibition.

The subject of data set [2] is High Sensitive C-Reactive Protein (hs-CRP). Description: High Sensitive C-Reactive Protein test (Immulite 2000 Xpi). Here is the method: Subjects were also measured for high sensitive C-reactive protein (“hs-CRP”) levels at Visit 1, Visit 2, Visit 3 pre-dose, Visit 3 at 24 hours, Visit 6 pre-dose and Visit 6 at 24 hours.
High Sensitive C-Reactive Protein (“hs-CRP”) was measured using a Seimens Immulite 2000® Xpi analyzer (Immulite 2000 is a registered trademark of Siemens Healthcare Diagnostic, Inc.), prior to 162.5 mg ER ASA (Durlaza®) dosing at Visit 2 pre-dose, at Visit 3 pre-dose and Visit 3 at 24-hr post-dose for the 162.5 mg ER ASA (Durlaza®) dose, and at Visit 6 pre-dose and Visit 6 at 24-hr post-dose for the 325 mg ER ASA dose.

The next data set concerns TxB2. Description: Excretion of thromboxane metabolite, urine GC/MS (Example 3). As to the method:
(§2) Subjects of Group 1 were randomly administered a placebo, 81 mg IR ASA and 162.5 mg IR ASA. Subjects of Group 2 were randomly administered a placebo, 81 mg ER ASA and 162.5 mg ER ASA (Durlaza®). Each subject was prohibited from taking any aspirin for two weeks prior to being administered the randomly chosen drug daily for 1 week followed by a urine collection 24 hours after dosing. This protocol was repeated two additional times. For each urine collection TxB2 and 2, 3-dinor-6-keto-PGF1α (“prostacyclin”) levels were measured using gas chromatography-mass spectrometry (“GC/MS”). Statistical analysis was done using Wilcoxon rank sum test for continuous variables and the Pearson test for categorical variables.

The subject of data set [3] is 2, 3-dinor-6-keto-PGF1α (prostacyclin). Description: Excretion of prostacyclin metabolite, urine GC/MS (Example 3). Here is the method: as §2
[4] abbreviates: Visit 2, 81 mg IR QD (vs. Visit 3 pre dose).
Setting [5] is: Visit 2, 81 mg IR QD (vs. Visit 6 pre dose).

For the compound `CC(=O)Oc1ccccc1C(=O)O` [IR ASA, acetylsalicylic acid], the “time required to reach the maximum concentration of ASA” value in data set [1] (all doses, single dose) was in the range of 1 to 2 h. For the same compound, the entries for the “AUClast of ASA” value in data set [1] (single dose 40 mg) and in data set [1] (single dose 81 mg) were 384 ng·h/mL and 865 ng·h/mL, respectively. In addition, the “single dose inhibition of TxB2 production” value in the data set with serum TxB2 production is recorded as “maintained during a 24-hour period”. The “LTA (%) 2 mM AA (Final), first line so headed” value in the data set on platelet aggregation (setting [4]) is recorded as 5 ± 12%; in the data set on platelet aggregation (setting [5]) it was 3 ± 2%. Also, the “LTA (%) 2 mM AA (Final), second line so headed” value in the data set with platelet aggregation (setting [4]) is reported as 6 ± 13%; with platelet aggregation (setting [5]), 3 ± 2%. Besides, the “subjects with RHI < 1.67 (n, %)” value is given as 4 (44) n, % in the data set on endothelial function (HPT Group, Visit 5, 81 mg IR ASA QD) and 11 (27.5) n, % in the data set with endothelial function (Visit 2, 81 mg IR ASA QD). Further, the “subjects with hs-CRP >3 mg/L (n, %)” value in data set [2] (V2 pre-dose, 81 mg IR ASA) is given as 23 (57) n, %. Moreover, the “patients meeting the criteria for elevated CRP” value in data set [2] (during 81 mg IR ASA therapy, total study population) is given as 47%. Further, the “Bradykinin-stimulated TxB2 levels 4 hours post-dosing, over placebo” value in the data set on TxB2 (81 mg daily) and in the data set on TxB2 (162.5 mg daily) was “significantly reduced” in each case. Besides, the “Basal urinary TxB2 levels 24 hours post-dosing, over placebo” value in the data set with TxB2 (81 mg daily for 1 week) and in the data set on TxB2 (162.5 mg daily for 1 week) was “significantly reduced” each time. Further, the “dose dependence of the effect on TxB2 synthesis” value in the data set on TxB2 (81 vs 162.5 mg) is “not seen”. The “Bradykinin-stimulated prostacyclin levels, over placebo” value in data set [3] (81 mg daily) and in data set [3] (162.5 mg daily) was “significantly reduced” throughout.
